# Like-named read-outs stand apart in the source and are kept apart here.
# Tests used:
# [1] = biological target: T1, rA1 adenosine receptor (Rattus norvegicus, UniProt P25099); experiment: Rat A1 adenosine receptor binding assay, [3H]CHA displacement, rat brain membranes
# T1 construct: membranes of rat brain (150-200 μg- of protein/assay); from tissue; host or cells: whole brain of male Wistar rats
# T1 sequence (P25099 1-326): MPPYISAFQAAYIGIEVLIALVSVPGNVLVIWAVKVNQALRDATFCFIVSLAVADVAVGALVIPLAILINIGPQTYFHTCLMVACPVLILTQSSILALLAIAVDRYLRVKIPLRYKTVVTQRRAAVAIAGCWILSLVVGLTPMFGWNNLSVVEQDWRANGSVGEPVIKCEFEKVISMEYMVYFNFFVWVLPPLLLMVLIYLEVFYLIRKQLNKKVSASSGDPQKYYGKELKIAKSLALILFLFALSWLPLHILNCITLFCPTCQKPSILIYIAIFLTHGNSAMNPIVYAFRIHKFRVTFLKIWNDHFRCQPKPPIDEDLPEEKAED
# Description: (§1) Male Wistar rats (200-250 g) were decapitated and the whole brain and striatum dissected on ice. […] The homogenate was centrifuged at 48,000 for 10 min, and the pellet was resuspended in the same buffer containing 2 IU/mL adenosine deaminase. After 30 min incubation at 37° C., the membranes were centrifuged and pellets were stored at −80° C. Prior to freezing, an aliquot of homogenate was removed for protein assay with bovine albumin as reference standard. Binding assays were performed on rat brain and striatum membranes respectively, in the presence of 10 mM MgCl2 at 25° C.
# (§2) Separation of bound from free radio ligand was performed by rapid filtration through Whatman GF/B filters which were washed three times with ice-cold buffer. Filter bound radioactivity was measured by scintillation spectrometry after addition of 5 mL of Aquassure. […] Ki values were calculated from the Cheng-Prusoff equation. All binding data were analyzed using the nonlinear regression curve-fitting computer program LIGAND.
# [2] = biological target: T2, rA2A adenosine receptor (Rattus norvegicus, UniProt P30543); experiment: Rat A2A adenosine receptor binding assay, [3H]SCH58261 displacement, rat striatum membranes
# T2 construct: membranes of rat striatum (80-100 μmg of protein/assay); from tissue; host or cells: striatum of male Wistar rats
# Description: as §1, §2
# [3] = biological target: T3, human recombinant A3 adenosine receptor (Homo sapiens, UniProt P0DMS8); experiment: Human cloned A3 adenosine receptor binding assay, [125I]AB-MECA, HEK-293 membranes; set-up: USA; host or cells: HEK-293; conditions: for Ki: HEK-293 membranes, [125I]AB-MECA, read-out: hA3 (Ki); for rA1/hA3 / rA2A/hA3: selectivity ratio of Ki values
# T3 sequence (P0DMS8 1-318): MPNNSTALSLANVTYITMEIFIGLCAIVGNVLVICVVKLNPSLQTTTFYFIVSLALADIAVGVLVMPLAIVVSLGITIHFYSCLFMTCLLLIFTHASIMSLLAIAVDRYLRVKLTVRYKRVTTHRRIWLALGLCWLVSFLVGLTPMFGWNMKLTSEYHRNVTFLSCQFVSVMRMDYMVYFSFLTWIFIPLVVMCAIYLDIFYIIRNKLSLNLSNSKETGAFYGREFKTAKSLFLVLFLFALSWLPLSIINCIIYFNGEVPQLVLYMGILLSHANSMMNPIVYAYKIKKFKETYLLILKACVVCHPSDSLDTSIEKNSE
# [4] = rat striatum membranes, [3H]SCH58261, read-out: rA2A (Ki)
# T2 sequence (P30543 whole entry): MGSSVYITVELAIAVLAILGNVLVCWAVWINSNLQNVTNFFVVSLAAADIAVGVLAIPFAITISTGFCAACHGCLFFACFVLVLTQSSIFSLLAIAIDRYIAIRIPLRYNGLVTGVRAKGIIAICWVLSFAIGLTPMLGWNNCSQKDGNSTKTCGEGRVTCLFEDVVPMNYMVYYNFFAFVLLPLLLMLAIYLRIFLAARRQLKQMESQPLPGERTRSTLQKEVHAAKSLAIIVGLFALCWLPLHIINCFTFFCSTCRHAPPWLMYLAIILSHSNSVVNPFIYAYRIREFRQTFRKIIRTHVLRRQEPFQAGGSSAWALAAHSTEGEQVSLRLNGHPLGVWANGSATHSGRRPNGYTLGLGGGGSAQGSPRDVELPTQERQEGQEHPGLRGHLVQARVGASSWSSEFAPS
SMILES,Ki [1] [nM],"Ki [2, 4] [nM]",Ki [3] [nM],rA1/hA3 [3],rA2A/hA3 [3],affinity for A2A adenosine receptors (in words) [2],Ki ([2]; read-out: rA2A (Ki)) [nM],affinity at human adenosine A3 receptor subtype (in words) ([3]; discussion of Table 1),affinity and selectivity for the A3 receptor subtype (in words) ([3]; discussion of Table 1),Ki [2] [nM]
"CCCn1cc2c(nc(N)n3nc(-c4ccco4)nc23)n1 [Compound 36, 5-Amino-8-propyl-2-(2-furyl)-pyrazolo[4,3-e]1,2,4-triazolo[1,5-c]pyrimidine]",139,20.2,613,0.22,0.03,–,–,–,–,–
"O=C(Nc1cccc(Cl)c1)Nc1nc2nn(CCCc3ccccc3)cc2c2nc(-c3ccco3)nn12 [Compound 56, 5-[[(3-Chlorophenyl)amino]carbonyl]amino-8-(3-(phenyl)propyl)-2-(2-furyl)-pyrazolo[4,3-e]1,2,4-triazolo[1,5-c]pyrimidine]",> 10000,3200,42.6,>234,75,–,–,–,–,–
"Nc1nc2nn(CCc3ccccc3)cc2c2nc(-c3ccco3)nn12 [Compound 40, 5-Amino-8-(2-(phenyl)ethyl)-2-(2-furyl)-pyrazolo[4,3-e]1,2,4-triazolo[1,5-c]pyrimidine]",2.16,–,2780,–,–,great affinity,0.7,low affinity,–,–
"Cn1cc2c(nc(N)n3nc(-c4ccco4)nc23)n1 [Compound 34, 5-Amino-8-methyl-2-(2-furyl)-pyrazolo[4,3-e]1,2,4-triazolo[1,5-c]pyrimidine]",–,30.6,557,0.56,0.05,–,–,–,–,–
"Nc1nc2nn(CCCc3ccccc3)cc2c2nc(-c3ccco3)nn12 [Compound 41, 5-Amino-8-(3-(phenyl)propyl)-2-(2-furyl)-pyrazolo[4,3-e]1,2,4-triazolo[1,5-c]pyrimidine]",11.1,0.59,2670,–,–,–,–,low affinity,–,–
"Cn1cc2c(nc(NC(=O)Nc3cccc(Cl)c3)n3nc(-c4ccco4)nc23)n1 [Compound 42, 5-[[(3-Chlorophenyl)amino]carbonyl]amino-8-methyl-2-(2-furyl)-pyrazolo[4,3-e]1,2,4-triazolo[1,5-c]pyrimidine]",5050,> 10000,0.22,"22,931",">45,454",–,–,–,–,–
"CCn1cc2c(nc(NC(=O)Nc3cccc(Cl)c3)n3nc(-c4ccco4)nc23)n1 [Compound 44, 5-[[(3-Chlorophenyl)amino]carbonyl]amino-8-ethyl-2-(2-furyl)-pyrazolo[4,3-e]1,2,4-triazolo[1,5-c]pyrimidine]",2700,2800,2.09,"1,291","1,339",–,–,–,–,–
"COc1ccc(NC(=O)Nc2nc3nn(CCCc4ccccc4)cc3c3nc(-c4ccco4)nn23)cc1 [Compound 57, 5-[[(4-Methoxyphenyl)amino]carbonyl]amino-8-(3(phenyl)propyl)-2-(2-furyl)-pyrazolo[4,3-e]1,2,4-triazolo[1,5-c]pyrimidine]",1510,> 10000,19.8,76.4,>504,–,–,–,–,–
"CCCCn1cc2c(nc(N)n3nc(-c4ccco4)nc23)n1 [Compound 37, 5-Amino-8-butyl-2-(2-furyl)-pyrazolo[4,3-e]1,2,4-triazolo[1,5-c]pyrimidine]",26.3,–,1110,0.02,0.003,–,–,–,–,–
"CC(C)CCn1cc2c(nc(NC(=O)Nc3cccc(Cl)c3)n3nc(-c4ccco4)nc23)n1 [Compound 50, 5-[[(3-Chlorophenyl)amino]carbonyl]amino-8-isopentyl-2-(2-furyl)-pyrazolo[4,3-e]1,2,4-triazolo[1,5-c]pyrimidine]",1650,1200,81.1,20,15,–,–,–,–,–
"CCn1cc2c(nc(NC(=O)Nc3ccc(OC)cc3)n3nc(-c4ccco4)nc23)n1 [Compound 45, 5-[[(4-Methoxyphenyl)amino]carbonyl]amino-8-ethyl-2-(2-furyl)-pyrazolo[4,3-e]1,2,4-triazolo[1,5-]pyrimidine]",–,–,0.28,">35,714",">35,714",–,–,–,high affinity and selectivity,–
"CC(C)CCn1cc2c(nc(N)n3nc(-c4ccco4)nc23)n1 [Compound 38, 5-Amino-8-isopentyl-2-(2-furyl)-pyrazolo[4,3-e]1,2,4-triazolo[1,5-c]pyrimidine]",8.09,–,1160,–,–,–,–,low affinity,–,–
"CCCn1cc2c(nc(NC(=O)Nc3cccc(Cl)c3)n3nc(-c4ccco4)nc23)n1 [Compound 46, 5-[[(3-Chlorophenyl)amino]carbonyl]amino-8-propyl-2-(2-furyl)-pyrazolo[4,3-e]1,2,4-triazolo[1,5-c]pyrimidine]",1580,< 10000,0.49,"3,228",">20,408",–,–,–,–,–
CC(C)=CCn1cc2c(nc(NC(=O)Nc3cccc(Cl)c3)n3nc(-c4ccco4)nc23)n1 [Compound 52],3740,1450,147,25.4,9.8,–,–,–,–,–
"CC(C)=CCn1cc2c(nc(N)n3nc(-c4ccco4)nc23)n1 [Compound 39, 5-Amino-8-(2-isopentenyl)-2-(2-furyl)-pyrazolo[4,3-e]1,2,4-triazolo[1,5-c]pyrimidine]",10.1,1.45,887,0.01,0.001,–,–,–,–,–
"CCCn1cc2c(nc(NC(=O)Nc3ccc(OC)cc3)n3nc(-c4ccco4)nc23)n1 [Compound 47, 5-[[(4-Methoxyphenyl)amino]carbonyl]amino-8-propyl-2-(2-furyl)-pyrazolo[4,3-e]1,2,4-triazolo[1,5-c]pyrimidine]",> 10000,–,–,–,–,–,–,–,–,–
"COc1ccc(NC(=O)Nc2nc3nn(CC=C(C)C)cc3c3nc(-c4ccco4)nn23)cc1 [Compound 53, 5-[[(4-Methoxyphenyl)amino]carbonyl]amino-8-(2-isopentenyl)-2-(2-furyl)-pyrazolo[4,3-e]1,2,4-triazolo[1,5-c]pyrimidine]",5300,> 10000,29.6,179,>338,–,–,–,–,–
"CCn1cc2c(nc(N)n3nc(-c4ccco4)nc23)n1 [Compound 35, 5-Amino-8-ethyl-2-(2-furyl)-pyrazolo[4,3-e]1,2,4-triazolo[1,5-c]pyrimidine]",95.1,11.2,3580,0.03,0.003,–,–,–,–,–
"CCCCn1cc2c(nc(NC(=O)Nc3cccc(Cl)c3)n3nc(-c4ccco4)nc23)n1 [Compound 48, 5-[[(3-Chlorophenyl)amino]carbonyl]amino-8-butyl-2-(2-furyl)-pyrazolo[4,3-e]1,2,4-triazolo[1,5-c]pyrimidine]",1520,498,0.75,"2,020",664,–,–,–,–,–
"COc1ccc(NC(=O)Nc2nc3nn(CCc4ccccc4)cc3c3nc(-c4ccco4)nn23)cc1 [Compound 55, 5-[[(4-Methoxyphenyl)amino]carbonyl]amino-8-(2-(phenyl)ethyl)-2-(2-furyl)-pyrazolo[4,3-e]1,2,4-triazolo[1,5-c]pyrimidine]",1280,1400,1.47,872,951,–,–,–,–,–
"CCCCn1cc2c(nc(NC(=O)Nc3ccc(OC)cc3)n3nc(-c4ccco4)nc23)n1 [Compound 49, 5-[[(4-Methoxyphenyl)amino]carbonyl]amino-8-butyl-2-(2-furyl)-pyrazolo[4,3-e]1,2,4-triazolo[1,5-c]pyrimidine]",2100,–,0.3,–,–,–,–,–,–,649
"O=C(Nc1cccc(Cl)c1)Nc1nc2nn(CCc3ccccc3)cc2c2nc(-c3ccco3)nn12 [Compound 54, 5-[[(3-Chlorophenyl)amino]carbonyl]amino-8-(2-(phenyl)ethyl)-2-(2-furyl)-pyrazolo[4,3-e]1,2,4-triazolo[1,5-c]pyrimidine]",1050,1700,13.3,79,128,–,–,–,–,–
"O=C(Cc1ccccc1)Nc1nc2nn(CCCc3ccccc3)cc2c2nc(-c3ccco3)nn12 [Compound 59, 5-[(Benzyl)carbonyl]amino-8-(3-(phenyl)propyl)-2-(2-furyl)-pyrazolo[4,3-e]1,2,4-triazolo[1,5-c]pyrimidine]",345,400,121,2.8,3.3,–,–,–,–,–
